Active and inactive are the calls of the source. The rule behind the calls is not given here.

Among the data in PubChem BioAssay AID1259411 (Chemical Carcinogenesis Research Information System (CCRIS), 2018) are carcinogen call values, retold here.

The data set deals with rodent carcinogenicity bioassays, tumor incidence. Put plainly: CCRIS carcinogenicity studies. In outline: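 Archive of carcinogenicity, mutagenicity, tumor promotion and tumor inhibition results drawn from journals, NCI reports and other sources, expert-reviewed; covers 1985-2011 and is no longer updated.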

Turning to `CS(=O)(=O)c1ccc([C@@H](O)[C@@H](CO)NC(=O)C(Cl)Cl)cc1`, the carcinogen call is “inactive; negative” (Species: RAT, Strain/Sex: F344/FEMALE, Route: ORAL, Dose: 0, 125, 250 PPM IN DRINKING WATER FOR 104 WK (STUDY DURATION: 108 WK), Dose: 0, 125, 250 PPM IN DRINKING WATER FOR 104 WK (STUDY DURATION: 108 WK)) and “inactive; negative” (Species: RAT, Strain/Sex: F344/MALE, Route: ORAL, Dose: 0, 125, 250 PPM IN DRINKING WATER FOR 104 WK (STUDY DURATION: 108 WK), Dose: 0, 125, 250 PPM IN DRINKING WATER FOR 104 WK (STUDY DURATION: 108 WK)).

On to `CCc1cc2ccccc2c2ccc3c(c12)[C@@H]1O[C@@H]1[C@H](O)[C@H]3O`, for which the carcinogen call (Species: MOUSE, Strain/Sex: ICR/FEMALE, Route: INTRAPERITONEAL, Dose: 0, 8 NMOL IN 5 µL DMSO ON D 1, 16 NMOL IN 10 µL ON D 8 AND 32 NMOL IN 20 µL ON D 15 OF LIFE (STUDY DURATION: 35 WK)) is “inactive; negative” and the carcinogen call (Species: MOUSE, Strain/Sex: ICR/MALE, Route: INTRAPERITONEAL, Dose: 0, 8 NMOL IN 5 µL DMSO ON D 1, 16 NMOL IN 10 µL ON D 8 AND 32 NMOL IN 20 µL ON D 15 OF LIFE (STUDY DURATION: 35 WK)) was “inactive; negative”.

Take `CCc1cccc2c3c([nH]c12)C(CC)(CC(=O)O)OCC3` (centres undefined): the carcinogen call by setting is: (Species: MOUSE, Strain/Sex: CD-1/FEMALE, Route: ORAL, Dose: 0;3, 9, 15 MG/KG/D IN DIET FOR 78 WK (STUDY DURATION: 78 WK), Dose: 0;3, 9, 15 MG/KG/D IN DIET FOR 78 WK (STUDY DURATION: 78 WK)) “inactive; negative”; (Species: MOUSE, Strain/Sex: CD-1/MALE, Route: ORAL, Dose: 0, 3, 9, 15 MG/KG/D IN DIET FOR 78 WK (STUDY DURATION: 78 WK), Dose: 0, 3, 9, 15 MG/KG/D IN DIET FOR 78 WK (STUDY DURATION: 78 WK)) “inactive; negative”; (Species: RAT, Strain/Sex: STRAIN-CD/FEMALE, Route: ORAL, Dose: 0, 3, 9, 15 MG/KG/D IN DIET FOR 104 WK (STUDY DURATION: 104 WK), Dose: 0, 3, 9, 15 MG/KG/D IN DIET FOR 104 WK (STUDY DURATION: 104 WK)) “inactive; negative”; (Species: RAT, Strain/Sex: STRAIN-CD/MALE, Route: ORAL, Dose: 0, 3, 9, 15 MG/KG/D IN DIET FOR 104 WK (STUDY DURATION: 104 WK), Dose: 0, 3, 9, 15 MG/KG/D IN DIET FOR 104 WK (STUDY DURATION: 104 WK)) “inactive; negative”.

In the case of `ClC(Cl)c1ccccc1`, the carcinogen call is “inactive; negative” (Species: RAT, Strain/Sex: F344/FEMALE, Route: ORAL, Dose: 0, 0.1, 0.5, 2% IN FEED FOR 104 WK (STUDY DURATION: 104 WK), Dose: 0, 0.1, 0.5, 2% IN FEED FOR 104 WK (STUDY DURATION: 104 WK)) and “inactive; negative” (Species: RAT, Strain/Sex: F344/MALE, Route: ORAL, Dose: 0, 0.1, 0.5, 2% IN FEED FOR 104 WK (STUDY DURATION: 104 WK), Dose: 0, 0.1, 0.5, 2% IN FEED FOR 104 WK (STUDY DURATION: 104 WK)).

In the case of `NC(=O)c1cnccn1`, the carcinogen call by setting is: (Species: MOUSE, Strain/Sex: B6C3F1/MALE, Route: ORAL, Dose: 0, 5000, 10000 PPM IN DIET, Dose: 0, 5000, 10000 PPM IN DIET) “inactive; negative”; (Species: RAT, Strain/Sex: F344/FEMALE, Route: ORAL, Dose: 0, 5000, 10000 PPM IN DIET, Dose: 0, 5000, 10000 PPM IN DIET) “inactive; negative”; (Species: RAT, Strain/Sex: F344/MALE, Route: ORAL, Dose: 0, 5000, 10000 PPM IN DIET, Dose: 0, 5000, 10000 PPM IN DIET) “inactive; negative”.

For `NCC(=O)O`, the carcinogen call (Species: RAT, Strain/Sex: F344/FEMALE, Route: ORAL, Dose: 0, 2.5, 5% IN DRINKING WATER FOR 108 WK (STUDY DURATION: 108 WK), Dose: 0, 2.5, 5% IN DRINKING WATER FOR 108 WK (STUDY DURATION: 108 WK)) was “inactive; negative” and the carcinogen call (Species: RAT, Strain/Sex: F344/MALE, Route: ORAL, Dose: 0, 2.5, 5% IN DRINKING WATER FOR 108 WK (STUDY DURATION: 108 WK), Dose: 0, 2.5, 5% IN DRINKING WATER FOR 108 WK (STUDY DURATION: 108 WK)) is “inactive; negative”.

With `OCc1c2ccccc2cc2c1ccc1ccccc12`, the carcinogen call (Species: RAT, Strain/Sex: SPRAGUE-DAWLEY/FEMALE, Route: SUBCUTANEOUS, Dose: 0, 0.2 UMOL IN SESAME OIL:DMSO (9:1) 3/WK FOR 20 DOSES (STUDY DURATION: 52 WK), Tumor Site: Type of Lesion: INJECTION SITE: SARCOMA) is “active; positive”.

Take `O=C(O)CCl`: the carcinogen call (Species: MOUSE, Strain/Sex: B6C3F1/FEMALE, Route: GAVAGE, Dose: 0, 50, 100 MG/KG IN DEIONIZED WATER 5 D/WK FOR 104 WK (STUDY DURATION: 104 WK), Dose: 0, 50, 100 MG/KG IN DEIONIZED WATER 5 D/WK FOR 104 WK (STUDY DURATION: 104 WK)) is “inactive; negative”; the carcinogen call (Species: MOUSE, Strain/Sex: B6C3F1/MALE, Route: GAVAGE, Dose: 0, 50, 100 MG/KG IN DEIONIZED WATER 5 D/WK FOR 104 WK (STUDY DURATION: 104 WK), Dose: 0, 50, 100 MG/KG IN DEIONIZED WATER 5 D/WK FOR 104 WK (STUDY DURATION: 104 WK)) was “inactive; negative”; the carcinogen call (Species: RAT, Strain/Sex: F344/FEMALE, Route: GAVAGE, Dose: 0, 15, 30 MG/KG IN DEIONIZED WATER 5 D/WK FOR 104 WK (STUDY DURATION: 105 WK), Dose: 0, 15, 30 MG/KG IN DEIONIZED WATER 5 D/WK FOR 104 WK (STUDY DURATION: 105 WK)) is “inactive; negative”; the carcinogen call (Species: RAT, Strain/Sex: F344/MALE, Route: GAVAGE, Dose: 0, 15, 30 MG/KG IN DEIONIZED WATER 5 D/WK FOR 104 WK (STUDY DURATION: 105 WK), Dose: 0, 15, 30 MG/KG IN DEIONIZED WATER 5 D/WK FOR 104 WK (STUDY DURATION: 105 WK)) was “inactive; negative”; the carcinogen call (Species: RAT, Strain/Sex: F344/MALE, Route: ORAL, Dose: O, 0.05, 0.5, 2 G/L IN DRINKING WATER FOR 104 WK, THE 2.5 G/L CONCENTRATION WAS LOWERED TO 1.5 G/L AT 8 WK THEN TO 1 G/L, Dose: O, 0.05, 0.5) was “inactive; negative”.

As to `O[C@H]1CCc2c(ccc3cc4ccc5ccccc5c4nc23)[C@@H]1O`, the carcinogen call is “inactive; negative” (Species: MOUSE, Strain/Sex: CD-1/FEMALE, Route: INTRAPERITONEAL, Dose: 0, 175 NMOL (TOTAL DOSE) ADMINISTERED AS 1/7 OF DOSE WITHIN 24 HR AFTER BIRTH, 2/7 OF DOSE AT 8 D OLD, 4/7 OF DOSE AT 15) and “inactive; negative” (Species: MOUSE, Strain/Sex: CD-1/MALE, Route: INTRAPERITONEAL, Dose: 0, 175 NMOL (TOTAL DOSE) ADMINISTERED AS 1/7 OF DOSE WITHIN 24 HR AFTER BIRTH, 2/7 OF DOSE AT 8 D OLD, 4/7 OF DOSE AT 15).

Turning to `Cn1c(CCCC(=O)O)nc2cc(N(CCCl)CCCl)ccc21`, the carcinogen call (Species: MOUSE, Strain/Sex: AB/JENA/FEMALE, Route: INTRAPERITONEAL, Dose: 0, 12.5, 25 MG/KG IN 2 ML SALINE 1/D FOR 4 D FOR A TOTAL DOSE OF 0, 50, 100 MG/KG, Dose: 0, 12.5, 25 MG/KG IN 2 ML SALINE 1/D FOR 4 D FOR A TOTAL DOSE OF 0, 50, 100 MG/KG, Tumor Site: Type of Lesion: PERITONEUM: SARCOMA) is “active; positive” and the carcinogen call (Species: MOUSE, Strain/Sex: AB/JENA/FEMALE, Route: ORAL, Dose: 0, 62.5 MG/KG IN 0.25 ML WATER 1/D FOR 4 D FOR A TOTAL DOSE OF 0, 250 MG/KG, Dose: 0, 62.5 MG/KG IN 0.25 ML WATER 1/D FOR 4 D FOR A TOTAL DOSE OF 0, 250 MG/KG, Tumor Site: Type of Lesion: LUNG: ADENOMA) is “active; positive”.

`CCC(O)OC` (centres undefined): the carcinogen call is “inactive; negative” (Species: MOUSE, Strain/Sex: B6C3F1/FEMALE, Route: INHALATION, Dose: 0, 300, 1000, 3000 PPM 6 HR/D 5 D/WK FOR 2 YR (STUDY DURATION: 2 YR), Dose: 0, 300, 1000, 3000 PPM 6 HR/D 5 D/WK FOR 2 YR (STUDY DURATION: 2 YR)); “inactive; negative” (Species: MOUSE, Strain/Sex: B6C3F1/MALE, Route: INHALATION, Dose: 0, 300, 1000, 3000 PPM 6 HR/D 5 D/WK FOR 2 YR (STUDY DURATION: 2 YR), Dose: 0, 300, 1000, 3000 PPM 6 HR/D 5 D/WK FOR 2 YR (STUDY DURATION: 2 YR)); “inactive; negative” (Species: RAT, Strain/Sex: F344/FEMALE, Route: INHALATION, Dose: 0, 300, 1000, 3000 PPM 6 HR/D 5 D/WK FOR 2 YR (STUDY DURATION: 2 YR), Dose: 0, 300, 1000, 3000 PPM 6 HR/D 5 D/WK FOR 2 YR (STUDY DURATION: 2 YR)); “inactive; negative” (Species: RAT, Strain/Sex: F344/MALE, Route: INHALATION, Dose: 0, 300, 1000, 3000 PPM 6 HR/D 5 D/WK FOR 2 YR (STUDY DURATION: 2 YR), Dose: 0, 300, 1000, 3000 PPM 6 HR/D 5 D/WK FOR 2 YR (STUDY DURATION: 2 YR)).
